Experimental data as given in patent US9255090B2, “Heterocyclyl derivatives and their use as prostaglandin D2 receptor modulators” (Actelion Pharmaceuticals Ltd., priority 2012, dated 2016).

What follows are compounds tested against hCRTH2 receptor (Homo sapiens (Human), UniProt Q9Y5Y4) (assay: hCRTH2 receptor membranes radioligand (3H-PGD2) displacement assay). Conditions: 3H-PGD2 radioligand displacement, HEK293-hCRTH2 membranes.
Type: binding
Outline: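 Compound was first mixed with buffer, then 3H-PGD2 was added at 2.5 nM, and the reaction was started with hCRTH2 membranes from HEK293 cells at 20 μg/well. After 90 min at room temperature, mixtures were filtered and washed with ice-cold buffer, and retained radioactivity was counted.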

hCRTH2 receptor, sequence (Q9Y5Y4 whole entry): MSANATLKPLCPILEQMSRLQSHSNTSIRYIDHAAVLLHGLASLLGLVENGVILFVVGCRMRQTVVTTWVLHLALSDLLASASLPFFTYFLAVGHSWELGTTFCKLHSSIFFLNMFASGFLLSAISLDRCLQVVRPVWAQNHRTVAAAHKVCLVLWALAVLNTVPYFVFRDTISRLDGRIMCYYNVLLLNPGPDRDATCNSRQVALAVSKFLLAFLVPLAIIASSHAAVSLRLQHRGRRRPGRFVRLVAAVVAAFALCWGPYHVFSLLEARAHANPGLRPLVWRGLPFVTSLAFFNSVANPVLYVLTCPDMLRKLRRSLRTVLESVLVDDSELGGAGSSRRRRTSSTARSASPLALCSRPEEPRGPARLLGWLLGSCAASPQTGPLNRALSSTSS

| IC50 [nM] | Compound |
| --- | --- |
| 49.4 | CCOc1cc(CC(=O)O)ccc1-c1ccc(F)c2c1CN(C(=O)OCCC(C)C)CC2 [Example 393, 8-(4-Carboxymethyl-2-ethoxy-phenyl)-5-fluoro-3,4-dihydro-1H-isoquinoline-2-carboxylic acid 3-methyl-butyl ester] |
| 3.7 | CCOc1cc(CC(=O)O)ccc1-c1ccc(F)c2c1CN(C(=O)OCc1ccccn1)CC2 [Example 395, 8-(4-Carboxymethyl-2-ethoxy-phenyl)-5-fluoro-3,4-dihydro-1H-isoquinoline-2-carboxylic acid pyridin-2-ylmethyl ester] |
| 575 | O=C(O)Cc1ccc(Cl)cc1-c1ccc(F)c2c1CN(C(=O)OCc1ccccc1)CC2 [Example 416, 8-(2-Carboxymethyl-5-chloro-phenyl)-5-fluoro-3,4-dihydro-1H-isoquinoline-2-carboxylic acid benzyl ester] |
| 23.5 | COc1cccc(OCC(=O)O)c1-c1ccc(F)c2c1CN(C(=O)OCc1ccccc1)CC2 [Example 417, 8-(2-Carboxymethoxy-6-methoxy-phenyl)-5-fluoro-3,4-dihydro-1H-isoquinoline-2-carboxylic acid benzyl ester] |
| 352 | COc1cccc(CC(=O)O)c1-c1ccc(F)c2c1CN(C(=O)OCc1ccccc1)CC2 [Example 418, 8-(2-Carboxymethyl-6-methoxy-phenyl)-5-fluoro-3,4-dihydro-1H-isoquinoline-2-carboxylic acid benzyl ester] |
| 180 | COc1c(CC(=O)O)cccc1-c1ccc(F)c2c1CN(C(=O)OCc1ccccc1)CC2 [Example 423, 8-(3-Carboxymethyl-2-methoxy-phenyl)-5-fluoro-3,4-dihydro-1H-isoquinoline-2-carboxylic acid benzyl ester] |
| 444 | COc1cc(OCC(=O)O)ccc1-c1ccc(F)c2c1CN(C(=O)OCc1ccccc1)CC2 [Example 424, 8-(4-Carboxymethoxy-2-methoxy-phenyl)-5-fluoro-3,4-dihydro-1H-isoquinoline-2-carboxylic acid benzyl ester] |
| 1.9 | O=C(O)Cc1ccc(OCC(F)(F)F)c(-c2ccc(F)c3c2CN(C(=O)[C@@H]2C[C@H]2c2ccccc2)CC3)c1 [Example 426, [3-[5-Fluoro-2-((1R,2R)-2-phenyl-cyclopropanecarbonyl)-1,2,3,4-tetrahydro-isoquinolin-8-yl]-4-(2,2,2-trifluoro-ethoxy)-phenyl]-acetic acid] |
| 3.1 | O=C(O)Cc1ccc(OCCF)c(-c2ccc(F)c3c2CN(C(=O)[C@@H]2C[C@H]2c2ccccc2)CC3)c1 [Example 427, {4-(2-Fluoro-ethoxy)-3-[5-fluoro-2-((1R,2R)-2-phenyl-cyclopropanecarbonyl)-1,2,3,4-tetrahydro-isoquinolin-8-yl]-phenyl}-acetic acid] |
| 50.7 | COc1ccc(C2(C(=O)O)CC2)cc1-c1ccc(F)c2c1CN(C(=O)[C@@H]1C[C@H]1c1ccccc1)CC2 [Example 429, 1-{3-[5-Fluoro-2-((1R,2R)-2-phenyl-cyclopropanecarbonyl)-1,2,3,4-tetrahydro-isoquinolin-8-yl]-4-methoxy-phenyl}-cyclopropanecarboxylic acid] |
| 14.9 | O=C(O)Cc1ccc(OC2CC2)c(-c2ccc(F)c3c2CN(C(=O)OCc2ccccc2)CC3)c1 [Example 430, 8-(5-Carboxymethyl-2-cyclopropoxy-phenyl)-5-fluoro-3,4-dihydro-1H-isoquinoline-2-carboxylic acid benzyl ester] |
| 5.3 | CCOc1ccc(CC(=O)O)cc1-c1ccc(F)c2c1CN(C(=O)NCc1ccccc1F)CC2 [Example 432, {4-Ethoxy-3-[5-fluoro-2-(2-fluoro-benzylcarbamoyl)-1,2,3,4-tetrahydro-isoquinolin-8-yl]-phenyl}-acetic acid] |
| 59.3 | CCOc1ccc(CC(=O)O)cc1-c1ccc(F)c2c1CN(C(=O)NCc1cccc(F)c1)CC2 [Example 433, {4-Ethoxy-3-[5-fluoro-2-(3-fluoro-benzylcarbamoyl)-1,2,3,4-tetrahydro-isoquinolin-8-yl]-phenyl}-acetic acid] |
| 0.7 | CCOc1ccc(CC(=O)O)cc1-c1ccc(F)c2c1CN(C(=O)NCc1ccc(F)cc1)CC2 [Example 434, {4-Ethoxy-3-[5-fluoro-2-(4-fluoro-benzylcarbamoyl)-1,2,3,4-tetrahydro-isoquinolin-8-yl]-phenyl}-acetic acid] |
| 2.6 | CCOc1ccc(CC(=O)O)cc1-c1ccc(F)c2c1CN(C(=O)NCCc1ccccc1)CC2 [Example 435, [4-Ethoxy-3-(5-fluoro-2-phenethylcarbamoyl-1,2,3,4-tetrahydro-isoquinolin-8-yl)-phenyl]-acetic acid] |
| 5.4 | CCOc1ccc(CC(=O)O)cc1-c1ccc(F)c2c1CN(C(=O)NCc1ccccc1Cl)CC2 [Example 436, {3-[2-(2-Chloro-benzylcarbamoyl)-5-fluoro-1,2,3,4-tetrahydro-isoquinolin-8-yl]-4-ethoxy-phenyl}-acetic acid] |
| 10.9 | CCOc1ccc(CC(=O)O)cc1-c1ccc(F)c2c1CN(C(=O)NCc1ccccc1OC)CC2 [Example 437, {4-Ethoxy-3-[5-fluoro-2-(2-methoxy-benzylcarbamoyl)-1,2,3,4-tetrahydro-isoquinolin-8-yl]-phenyl}-acetic acid] |
| 126 | CCCNC(=O)N1CCc2c(F)ccc(-c3cc(CC(=O)O)ccc3OCC)c2C1 [Example 439, [4-Ethoxy-3-(5-fluoro-2-propylcarbamoyl-1,2,3,4-tetrahydro-isoquinolin-8-yl)-phenyl]-acetic acid] |
| 3.8 | CCOc1cc(CC(=O)O)ccc1-c1ccc(F)c2c1CN(C(=O)NCc1ccccc1F)CC2 [Example 440, {3-Ethoxy-4-[5-fluoro-2-(2-fluoro-benzylcarbamoyl)-1,2,3,4-tetrahydro-isoquinolin-8-yl]-phenyl}-acetic acid] |
| 17.5 | CCOc1cc(CC(=O)O)ccc1-c1ccc(F)c2c1CN(C(=O)NCc1cccc(F)c1)CC2 [Example 441, {3-Ethoxy-4-[5-fluoro-2-(3-fluoro-benzylcarbamoyl)-1,2,3,4-tetrahydro-isoquinolin-8-yl]-phenyl}-acetic acid] |
| 5.3 | CCOc1cc(CC(=O)O)ccc1-c1ccc(F)c2c1CN(C(=O)NCc1ccc(F)cc1)CC2 [Example 442, {3-Ethoxy-4-[5-fluoro-2-(4-fluoro-benzylcarbamoyl)-1,2,3,4-tetrahydro-isoquinolin-8-yl]-phenyl}-acetic acid] |
| 18.1 | CCOc1cc(CC(=O)O)ccc1-c1ccc(F)c2c1CN(C(=O)NCCc1ccccc1)CC2 [Example 443, [3-Ethoxy-4-(5-fluoro-2-phenethylcarbamoyl-1,2,3,4-tetrahydro-isoquinolin-8-yl)-phenyl]-acetic acid] |
| 2 | CCOc1cc(CC(=O)O)ccc1-c1ccc(F)c2c1CN(C(=O)NCc1ccccc1Cl)CC2 [Example 444, {4-[2-(2-Chloro-benzylcarbamoyl)-5-fluoro-1,2,3,4-tetrahydro-isoquinolin-8-yl]-3-ethoxy-phenyl}-acetic acid] |
| 2.5 | CCOc1cc(CC(=O)O)ccc1-c1ccc(F)c2c1CN(C(=O)NCc1ccccc1OC)CC2 [Example 445, {3-Ethoxy-4-[5-fluoro-2-(2-methoxy-benzylcarbamoyl)-1,2,3,4-tetrahydro-isoquinolin-8-yl]-phenyl}-acetic acid] |
| 4.7 | CCOc1cc(CC(=O)O)ccc1-c1ccc(F)c2c1CN(C(=O)NCc1ccccc1)CC2 [Example 446, [4-(2-Benzylcarbamoyl-5-fluoro-1,2,3,4-tetrahydro-isoquinolin-8-yl)-3-ethoxy-phenyl]-acetic acid] |
| 78.2 | CCCNC(=O)N1CCc2c(F)ccc(-c3ccc(CC(=O)O)cc3OCC)c2C1 [Example 447, [3-Ethoxy-4-(5-fluoro-2-propylcarbamoyl-1,2,3,4-tetrahydro-isoquinolin-8-yl)-phenyl]-acetic acid] |
| 9.2 | CCOc1cc(CC(=O)O)ccc1-c1ccc(F)c2c1CN(C(=O)NCc1ccccn1)CC2 [Example 448, (3-Ethoxy-4-{5-fluoro-2-[(pyridin-2-ylmethyl)-carbamoyl]-1,2,3,4-tetrahydro-isoquinolin-8-yl}-phenyl)-acetic acid] |
| 14.2 | CCOc1ccc(CC(=O)O)cc1-c1ccc(F)c2c1CN(C(=O)NCc1ccccn1)CC2 [Example 449, (4-Ethoxy-3-{5-fluoro-2-[(pyridin-2-ylmethyl)-carbamoyl]-1,2,3,4-tetrahydro-isoquinolin-8-yl}-phenyl)-acetic acid] |

| Compound | IC50 [nM] |
| --- | --- |
| CC(C)(C)Oc1ccc(CC(=O)O)cc1-c1ccc(F)c2c1CN(C(=O)[C@@H]1C[C@H]1c1ccccc1)CC2 [Example 428, {4-tert-Butoxy-3-[5-fluoro-2-((1R,2R)-2-phenyl-cyclopropanecarbonyl)-1,2,3,4-tetrahydro-isoquinolin-8-yl]-phenyl}-acetic acid] | 3.7 |
